The results in this text go back to patent US20100009917A1, “Modulating Enzymatic Processes by Addition of Diolcontaining Substances” (priority 2007, published 2010).

The target of the test is T1, TGase MTG P2 (Streptomyces mobaraensis, UniProt P81453).
T1 construct: made in house; host or cells: E. coli
It counts as biochemical, Streptovercilium mobaraense. As for the experimental part: TGase: • (a) TGase Activa WM from Ajinomoto, 60 mg/ml in 20 mM Phosphate buffer pH 8.5. The Activa WM enzyme from Streptoverticillium mobaraense is formulated under dry form in maltodextrins and contains 1% w/w of protein) (6.7 μl)); or • (b) TGase MTG P2 from Streptovercilium mobaraense expressed in soluble form using E. coli as expression system was formulated in 20 mM NaPhosphate buffer, pH 6.0, with 2 mM DTT and 5 w/v % maltodextrin. The concentration of the enzyme was between 0.7 and 4.5 mg/ml.
Capillary electrophoresis (CE) was carried out using an Agilent Technologies 3D-CE system (Agilent Technologies). Data acquisition and signal processing were performed using Agilent Technologies 3DCE ChemStation. The capillary was a 64.5 cm (56.0 cm efficient length) 50 μm i.d. “Extended Light Path Capillary” from Agilent. UV detection was performed at 200 nm (16 nm Bw, Reference 380 nm and 50 nm Bw). The running electrolyte was phosphate buffer 50 mM pH7.0. The capillary was conditioned with 0.1M NaOH for 3 min, then with Milli-Q water for 2 min and with the electrolyte for 3 min.
After each run, the capillary was flushed with milli-Q water for 2 min, then with phosphoric acid for 2 min, and with milli-Q water for 2 min. The hydrodynamic injection was done at 50 mbar for 4.0 s. The voltage was +25 kV. The capillary temperature was 30 C and the runtime was 10.5 min.
To a 1M solution of […] in triethanolamine 20 mM pH8.6 buffer (14 μl) was added triethanolamine 20 mM pH8.6 buffer (20.6 μl), ethylene glycol (53.6 μl) (40% w/v)), and a solution of human growth hormone (50 mg/ml) in triethanolamine 20 mM pH8.6 buffer (40 μl). The reaction was started by the addition of the TGase MTG P2 solution (0.35 mg/ml, 5.8 μl). The reaction mixture was incubated at ambient temperature and followed on CE.
The reaction was carried out in an analogous manner to the above method using the following concentrations: • [hGH]=0.67 mM (14.9 mg/ml final concentration) • [1,3-diamino 2-propanol]=300 mM • Buffer: 20 mM Triethanolamine pH 8.6 • +/−Ethylene glycol 40% (v/v) • [TGase MTG P2]=0.39 μM
The reaction was carried out in an analogous manner to the above method using the following concentrations: • [hGH]=0.67 mM (14.9 mg/ml final concentration) • [1,3-diamino 2-propanol]=300 mM • Buffer: 20 mM Triethanolamine pH 8.6 • +/−Ethylene glycol 10-40% (v/v) • [TGase MTG P2]=0.39 μM
The reaction was carried out in an analogous manner to the above method using the following concentrations: • [hGH]=0.67 mM (14.9 mg/ml final concentration) • [1,3-diamino 2-propanol]=300 mM • Buffer: 20 mM Triethanolamine pH 8.6 • +/−Ethylene glycol 40% (v/v) • [TGase MTG P2]=0.39 μM or 0.16 μM
The reaction was carried out with ethylene glycol, glycerol, propylene glycol and 1,3 propanediol in an analogous manner to the above method using the following concentrations: • [hGH]=0.67 mM (14.9 mg/ml final concentration) • [1,3-diamino 2-propanol]=300 mM • Buffer: 20 mM Triethanolamine pH 8.6 • +/−enhancing compound 7.18 M • [TGase MTG P2]=0.39 μM
The reaction was carried out with glycerol in an analogous manner to the above method, except for the fact that more enzyme was added after five hours of reaction time. The reaction used the following concentrations: • [hGH]=0.67 mM (14.9 mg/ml final concentration) • [1,3-diamino 2-propanol]=300 mM • Buffer: 20 mM Triethanolamine pH 8.6 • Glycerol 7.18 M • [TGase MTG P2]=0.39 μM then 1.17 μM at 5 hours

Where [1] appears, read: enhancing compound 7.18 M, TGase MTG P2 0.39 μM, FIG. 7.

Where two headings read alike, the source gives them in different places.

T1 sequence (P81453 77-407): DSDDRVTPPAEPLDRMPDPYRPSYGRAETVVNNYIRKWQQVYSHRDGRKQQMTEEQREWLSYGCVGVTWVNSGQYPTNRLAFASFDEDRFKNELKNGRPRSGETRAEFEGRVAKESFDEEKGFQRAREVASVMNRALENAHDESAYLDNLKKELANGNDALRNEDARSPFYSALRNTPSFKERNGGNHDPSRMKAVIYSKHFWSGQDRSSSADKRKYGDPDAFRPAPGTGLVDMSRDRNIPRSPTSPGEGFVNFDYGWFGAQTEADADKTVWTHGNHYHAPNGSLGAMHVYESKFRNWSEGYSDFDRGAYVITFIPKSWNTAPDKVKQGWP

For the compound `OCCCO` [1,3 propanediol, reference compound], under “1,3 propanediol 7.18 M, TGase MTG P2 0.39 μM, FIG. 7”, the “effect on the enzyme reaction” value is reported as “completely inhibited the reaction”.
With `OCC(O)CO` [Glycerol, glycerol], the “selectivity of the reaction” value is “improved the selectivity of the reaction”. Also, the “side products (pos.40-TA-hGH and di-transaminated hGH) formed” value under setting [1] is on record as “reduce the amount of side products”. For the same compound, the “yield when more enzyme is added” value (glycerol 7.18 M, TGase MTG P2 0.39 μM then 1.17 μM at 5 hours, FIG. 8) is on record as “can be increased”.
For `CC(O)CO` (stereo not drawn) [Propylene glycol, propylene glycol], under setting [1], the “yield, comparison of compounds of related structures” value is “next highest yield”.
As for `OCCO` [ethylene glycol], the “product yield, varying enzyme concentration” value is recorded as “highest product yield”; the “yield of pos.141 TA-hGH with rising ethylene glycol concentration” value is given as “increased yield”; the “yield, comparison of compounds of related structures” value is recorded as “highest yield”. Besides, the “maximum yield of the desired pos.141-hGH” value (pH 8.6) amounted to 75%.
